molecular target: T1, mutant B-RAF (Homo sapiens, UniProt P15056, V600E); assay: RAF biochemical assay (MEK-1 phosphorylation, anti-phospho MEK1/2 detection); conditions: not given
T1 construct: purchased Upstate (Charlottesville, Va.)
Method in brief: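 Detection is by ELISA: after a 30 min room-temperature reaction, plate-captured GST-MEK-1 is probed with anti-phospho MEK1/2, then an AP-tagged secondary antibody with fluorescent Attophos read-out.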

T1 sequence (P15056 whole entry V600E): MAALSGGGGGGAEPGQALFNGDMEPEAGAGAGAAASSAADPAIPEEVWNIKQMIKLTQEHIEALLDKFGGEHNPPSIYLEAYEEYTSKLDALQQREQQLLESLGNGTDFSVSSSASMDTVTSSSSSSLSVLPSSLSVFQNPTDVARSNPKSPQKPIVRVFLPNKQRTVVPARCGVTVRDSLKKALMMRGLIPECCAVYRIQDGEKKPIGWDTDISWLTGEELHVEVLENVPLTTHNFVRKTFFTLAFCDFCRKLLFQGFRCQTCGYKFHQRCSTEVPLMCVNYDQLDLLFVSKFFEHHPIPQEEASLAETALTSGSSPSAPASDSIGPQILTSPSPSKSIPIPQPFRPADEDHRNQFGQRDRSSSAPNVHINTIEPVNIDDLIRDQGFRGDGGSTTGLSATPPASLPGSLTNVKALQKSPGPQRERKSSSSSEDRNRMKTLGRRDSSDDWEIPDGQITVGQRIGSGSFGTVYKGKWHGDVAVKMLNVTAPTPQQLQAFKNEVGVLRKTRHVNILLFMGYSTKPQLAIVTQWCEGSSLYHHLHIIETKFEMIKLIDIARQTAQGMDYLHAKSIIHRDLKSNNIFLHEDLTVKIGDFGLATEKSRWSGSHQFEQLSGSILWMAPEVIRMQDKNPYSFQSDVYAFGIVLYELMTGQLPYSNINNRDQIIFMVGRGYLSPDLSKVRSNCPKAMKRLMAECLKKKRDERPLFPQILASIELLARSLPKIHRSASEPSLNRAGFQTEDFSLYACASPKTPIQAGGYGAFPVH

| Structure (SMILES) | IC50 [nM] |
| --- | --- |
| COCC(=O)N1CCC[C@@H](Nc2nccc(-c3c(-c4ccc(F)cc4)nc4occn34)n2)C1 [Example 30, 4-[6-(4-fluorophenyl)imi-dazo[2,1-b][1,3]oxazol-5-yl]-N-[(3R)-1-(methoxyacetyl)piperidin-3-yl]pyrimidin-2-amine] | 711 |

same assay, conditions: @ 3 uM

| Structure (SMILES) | inhibition at 3 µM [%] |
| --- | --- |
| O=S(=O)(c1ccc(C(F)(F)F)cc1)N1CCC(Nc2nccc(-c3c(-c4ccc(F)cc4)nc4occn34)n2)CC1 [Example 239, 4-[6-(4-fluorophenyl)imidazo[2,1-b][1,3]oxazol-5-yl]-N-(1-{[4-(trifluoromethyl)phenyl]sulfonyl}piperidin-4-yl)pyrimidin-2-amine] | 52 |

same assay, conditions: @ 10 uM; read-out: Mutant B-RAF % inhibition

| Structure (SMILES) | inhibition at 10 µM [%] |
| --- | --- |
| COc1cccc(-c2nc3sccn3c2-c2ccnc(N[C@@H]3CCN(S(=O)(=O)c4ccc(Cl)cc4)C3)n2)c1 [Example 280, N-{(3R)-1-[(4-chlorophenyl)sulfonyl]pyrro-lidin-3-yl}-4-[6-(3-methoxyphenyl)imidazo[2,1-b][1,3]thiazol-5-yl]pyrimidin-2-amine] | 37 |
| Cc1cn2c(-c3ccnc(NC4CCNCC4)n3)c(-c3ccc(F)cc3)nc2s1 [Example 224, 4-[6-(4-fluorophenyl)-2-methylimidazo[2,1-b][1,3]thiazol-5-yl]-N-piperidin-4-ylpyrimidin-2-amine] | 70 |
| CCN1CCC(Nc2nccc(-c3c(-c4ccc(F)cc4)nc4sccn34)n2)CC1 [Example 154, N-(1-ethylpiperidin-4-yl)-4-[6-(4-fluorophenyl)imidazo[2,1-b][1,3]thiazol-5-yl]pyrimidin-2-amine] | 36 |
| c1cc(-c2c(-c3ccc4c(c3)OCCO4)nc3sccn23)nc(N[C@@H]2CCCNC2)n1 [Example 99, 4-[6-(2,3-dihydro-1,4-benzodioxin-6-yl)imidazo[2,1-b][1,3]thiazol-5-yl]-N-[(3R)-piperidin-3-yl]pyrimidin-2-amine] | 29 |
| NCC(=O)N1CCC[C@@H](Nc2nccc(-c3c(-c4ccc(F)cc4)nc4occn34)n2)C1 [Example 35, N-[(3R)-1-(aminoacetyl)piper-idin-3-yl]-4-[6-(4-fluorophenyl)imidazo[2,1-b][1,3]oxazol-5-yl]pyrimidin-2-amine] | 11 |

same assay, conditions: read-out: Mutant B-RAF % inhibition

| Structure (SMILES) | inhibition at 10 µM [%] |
| --- | --- |
| Fc1ccc(-c2nc3sccn3c2-c2ccnc(N[C@@H]3CCCNC3)n2)cc1 [Example 62] | 45 |
| COc1cccc(S(=O)(=O)N2CCC[C@@H](Nc3nccc(-c4c(-c5ccc(F)cc5)nc5occn45)n3)C2)c1 [Example 57, 4-[6-(4-fluorophenyl)imi-dazo[2,1-b][1,3]oxazol-5-yl]-N-{(3R)-1-[(3-methoxy-phenyl)sulfonyl]piperidin-3-yl}pyrimidin-2-amine] | 34 |

same assay, conditions: read-out: Mutant B-RAF IC50

| Structure (SMILES) | IC50 [nM] |
| --- | --- |
| CCNC(=O)N1CCC(Nc2nccc(-c3c(-c4cccc(OC)c4)nc4sccn34)n2)CC1 [Example 213, N-ethyl-4-({4-[6-(3-methoxyphenyl)imidazo[2,1-b][1,3]thiazol-5-yl]pyrimidin-2-yl}amino)piperidine-1-carboxamide] | 2040 |
| COc1cccc(-c2nc3sccn3c2-c2ccnc(N[C@@H]3CCN(S(=O)(=O)c4ccc(C(=O)O)cc4)C3)n2)c1 [Example 281, 4-{[(3R)-3-({4-[6-(3-methoxyphenyl)imidazo[2,1-b][1,3]thiazol-5-yl]pyrimidin-2-yl}amino)pyrrolidin-1-yl]sulfonyl)benzoic acid] | > 3000 |
| O=C(Nc1ccccc1)N1CCC(Nc2nccc(-c3c(-c4ccc(F)cc4)nc4occn34)n2)CC1 [Example 171, 4-({4-[6-(4-fluorophenyl)imidazo[2,1-b][1,3]oxazol-5-yl]pyrimidin-2-yl}amino)-N-phenylpiperidine-1-carboxamide] | 4730 |
| COc1cc([N+](=O)[O-])ccc1NC(=O)N1CCC[C@@H](Nc2nccc(-c3c(-c4ccc(F)cc4)nc4occn34)n2)C1 [Example 75, (3R)-3-({4-[6-(4-fluorophenyl)imidazo[2,1-b][1,3]oxazol-5-yl]pyrimidin-2-yl}amino)-N-(2-methoxy-4-nitrophenyl)piperidine-1-carboxamide] | > 10000 |
| COC(=O)c1ccc(S(=O)(=O)N2CCC[C@@H](Nc3nccc(-c4c(-c5cccc(O)c5)nc5sccn45)n3)C2)cc1 [Example 314, methyl 4-{[(3R)-3-({4-[6-(3-hydroxyphenyl)imidazo[2,1-b][1,3]thiazol-5-yl]pyrimidin-2-yl}amino)piperidin-1-yl]sulfonyl}benzoate] | 30 |
| NCC(=O)Nc1cccc(-c2nc3sccn3c2-c2ccnc(N[C@@H]3CCCN(S(=O)(=O)c4ccc(Cl)cc4)C3)n2)c1 [Example 124, N~1~-(3-{5-[2-({(3R)-1-[(4-chlorophenyl)sulfonyl]piperidin-3-yl}amino)pyrimidin-4-yl]imidazo[2,1-b][1,3]thiazol-6-yl}phenyl)glycinamide] | 2960 |
| COc1cccc(-c2nc3sccn3c2-c2ccnc(NC3CCN(S(C)(=O)=O)CC3)n2)c1 [Example 326, 4-[6-(3-methoxyphenyl)imidazo[2,1-b][1,3]thiazol-5-yl]-N-[1-(methylsulfonyl)piperidin-4-yl]pyrimidin-2-amine] | 4000 |
| COc1ccc(-c2nc3sccn3c2-c2ccnc(NC3CCN(S(=O)(=O)c4ccc(Cl)cc4)CC3)n2)cc1 [Example 262, N-{1-[(4-chlorophenyl)sulfonyl]piperidin-4-yl}-4-[6-(4-methoxyphenyl)imidazo[2,1-b][1,3]thiazol-5-yl]pyrimidin-2-amine] | > 3000 |
| CC(C)(C)NC(=O)N1CCC(Nc2nccc(-c3c(-c4ccc(F)cc4)nc4occn34)n2)CC1 [Example 185, N-(tert-butyl)-4-({4-[6-(4-fluorophenyl)imidazo[2,1-b][1,3]oxazol-5-yl]pyrimidin-2-yl}amino)piperidine-1-carboxamide] | 1580 |
| O=C(NC1CCCCO1)N1CCC(Nc2nccc(-c3c(-c4ccc(F)cc4)nc4occn34)n2)CC1 (stereo not shown) [Example 177, 4-({4-[6-(4-fluorophenyl)imidazo[2,1-b][1,3]oxazol-5-yl]pyrimidin-2-yl}amino)-N-(tetrahydro-2H-pyran-2-yl)piperidine-1-carboxamide] | 354 |
| O=S(=O)(C1CC1)N1CCC(Nc2nccc(-c3c(-c4cccc(O)c4)nc4occn34)n2)CC1 [Example 339, 3-[5-(2-{[1-(cyclopropylsulfonyl)piperidin-4-yl]amino}pyrimidin-4-yl)imidazo[2,1-b][1,3]oxazol-6-yl]phenol] | 46 |
| O=C(c1ccccc1)N1CCC(Nc2nccc(-c3c(-c4ccc(F)cc4)nc4occn34)n2)CC1 [Example 159, N-(1-benzoylpiperidin-4-yl)-4-[6-(4-fluorophenyl)imidazo[2,1-b][1,3]oxazol-5-yl]pyrimidin-2-amine] | 1010 |
| O=C(NC1CCCC1)N1CCC(Nc2nccc(-c3c(-c4cccc(O)c4)nc4sccn34)n2)CC1 [Example 356, N-cyclopentyl-4-({4-[6-(3-hydroxyphenyl)imidazo[2,1-b][1,3]thiazol-5-yl]pyrimidin-2-yl}amino)piperidine-1-carboxamide] | 2540 |
| CCCCNC(=O)N1CCC(Nc2nccc(-c3c(-c4ccc(F)cc4)nc4occn34)n2)CC1 [Example 168, N-butyl-4-({4-[6-(4-fluorophenyl)imidazo[2,1-b][1,3]oxazol-5-yl]pyrimidin-2-yl}amino)piperidine-1-carboxamide] | 1110 |
| O=C(O)c1ccc(S(=O)(=O)N2CC[C@@H](Nc3nccc(-c4c(-c5cccc(O)c5)nc5sccn45)n3)C2)cc1 [Example 282, 4-{[(3R)-3-({4-[6-(3-hydroxyphenyl)imidazo[2,1-b][1,3]thiazol-5-yl]pyrimidin-2-yl}amino)pyrrolidin-1-yl]sulfonyl}benzoic acid] | 522 |
| COc1cccc(-c2nc3sccn3c2-c2ccnc(NC3CCN(C(=O)Cc4ccc(N(C)C)cc4)CC3)n2)c1 [Example 245, N-(1-{[4-(dimethylamino)phenyl]acetyl}piperidin-4-yl)-4-[6-(3-methoxyphenyl)imidazo[2,1-b][1,3]thiazol-5-yl]pyrimidin-2-amine] | 2460 |
| NC(=O)c1cccc(-c2nc3sccn3c2-c2ccnc(N[C@@H]3CCCN(S(=O)(=O)c4ccc(Cl)cc4)C3)n2)c1 [Example 350, 3-{5-[2-({(3R)-1-[(4-chlorophenyl)sulfonyl]piperidin-3-yl}amino)pyrimidin-4-yl]imidazo[2,1-b][1,3]thiazol-6-yl}benzamide] | 140 |
| O=S(=O)(c1cccs1)N1CCC[C@@H](Nc2nccc(-c3c(-c4cccc(O)c4)nc4occn34)n2)C1 [Example 388, 3-[5-(2-{[(3R)-1-(2-thienylsulfonyl)piperidin-3-yl]amino}pyrimidin-4-yl)imidazo[2,1-b][1,3]oxazol-6-yl]phenol] | 9 |
| Cc1cn2c(-c3ccnc(NC4CCN(S(=O)(=O)c5ccc(F)cc5)CC4)n3)c(-c3ccc(F)cc3)nc2s1 [Example 219, 4-[6-(4-fluorophenyl)-2-methylimidazo[2,1-b][1,3]thiazol-5-yl]-N-{1-[(4-fluorophenyl)sulfonyl]piperidin-4-yl}pyrimidin-2-amine] | 51 |
| O=C(NS(=O)(=O)c1ccc(Cl)cc1)N1CCC(Nc2nccc(-c3c(-c4cccc(O)c4)nc4sccn34)n2)CC1 [Example 336, N-[(4-chlorophenyl)sulfonyl]-4-({4-[6-(3-hydroxyphenyl)imidazo[2,1-b][1,3]thiazol-5-yl]pyrimidin-2-yl}amino)piperidine-1-carboxamide] | 1050 |
| COc1cccc(-c2nc3sccn3c2-c2ccnc(N[C@@H]3CCCN(C(=O)CC(C)C)C3)n2)c1 [Example 109, 4-[6-(3-methoxyphenyl)imidazo[2,1-b][1,3]thiazol-5-yl]-N-[(3R)-1-(3-methylbutanoyl)piperidin-3-yl]pyrimidin-2-amine] | > 3000 |
| O=C(c1ccccc1)N1CCC[C@@H](Nc2nccc(-c3c(-c4ccc(F)cc4)nc4occn34)n2)C1 [Example 26, N-[(3R)-1-benzoylpiperidin-3-yl]-4-[6-(4-fluorophenyl)imidazo[2,1-b][1,3]oxazol-5-yl]pyrimidin-2-amine] | 195 |

Reference: US7501430B2 (ArQule, Inc., priority 2006, dated 2009)
